According to ChEMBL document CHEMBL1201862, “PubChem BioAssay data set” (2004):
Activity calls are given as the source filed them.

Legend:
[1] = test system: Escherichia coli; assay: microbe, parasite or virus in culture
[2] = biological target: T1, Polyadenylate-binding protein 1 (Homo sapiens, UniProt P11940); assay: MLLE binding blockers, Cy5 peptide tracer – biochemical, fluorescence polarization, Cy5-PAM2 peptide, secondary, miRNA deadenylation inhibitor project, dose response (AID 602260); assay type: functional; conditions: read-out: IC50_Mean
[3] = biological target: Nonstructural protein 1 (Influenza A virus, UniProt Q194T2); assay type: functional, Influenza A virus (A/California/07/2009(H1N1))
[4] = biological target: T1, Polyadenylate-binding protein 1; assay: MLLE domain peptide-binding blockers, IC50 – biochemical, fluorescence polarization, FITC-PAM2 peptide, dose response (AID 602259); assay type: functional; conditions: read-out: IC50_Mean
[5] = decrease of insulin promoter-GFP reporter – imaging, high-content screening, mouse beta cells (AID 1628); assay type: functional; conditions: MIN6
[6] = test system: HeLa; assay: ATP-based viability loss in HeLa cells – cell-based, CellTiter-Glo luminescence, cherry-pick samples, cytotoxicity control for MITF activator project, dose response (AID 540259); assay type: functional; conditions: Homo sapiens
[7] = MIN6 cell viability loss – mouse insulinoma, cytotoxicity control, dose response (AID 2122); assay type: functional;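 further: confirmatory high-throughput counterscreen run to flag cytotoxic compounds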
[8] = biological target: T2, Aryl hydrocarbon receptor (Homo sapiens, UniProt P35869); conditions: Potency;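 further: confirmatory quantitative high-throughput screen measuring activation of the AhR signaling pathway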
T2 sequence (P35869 whole entry): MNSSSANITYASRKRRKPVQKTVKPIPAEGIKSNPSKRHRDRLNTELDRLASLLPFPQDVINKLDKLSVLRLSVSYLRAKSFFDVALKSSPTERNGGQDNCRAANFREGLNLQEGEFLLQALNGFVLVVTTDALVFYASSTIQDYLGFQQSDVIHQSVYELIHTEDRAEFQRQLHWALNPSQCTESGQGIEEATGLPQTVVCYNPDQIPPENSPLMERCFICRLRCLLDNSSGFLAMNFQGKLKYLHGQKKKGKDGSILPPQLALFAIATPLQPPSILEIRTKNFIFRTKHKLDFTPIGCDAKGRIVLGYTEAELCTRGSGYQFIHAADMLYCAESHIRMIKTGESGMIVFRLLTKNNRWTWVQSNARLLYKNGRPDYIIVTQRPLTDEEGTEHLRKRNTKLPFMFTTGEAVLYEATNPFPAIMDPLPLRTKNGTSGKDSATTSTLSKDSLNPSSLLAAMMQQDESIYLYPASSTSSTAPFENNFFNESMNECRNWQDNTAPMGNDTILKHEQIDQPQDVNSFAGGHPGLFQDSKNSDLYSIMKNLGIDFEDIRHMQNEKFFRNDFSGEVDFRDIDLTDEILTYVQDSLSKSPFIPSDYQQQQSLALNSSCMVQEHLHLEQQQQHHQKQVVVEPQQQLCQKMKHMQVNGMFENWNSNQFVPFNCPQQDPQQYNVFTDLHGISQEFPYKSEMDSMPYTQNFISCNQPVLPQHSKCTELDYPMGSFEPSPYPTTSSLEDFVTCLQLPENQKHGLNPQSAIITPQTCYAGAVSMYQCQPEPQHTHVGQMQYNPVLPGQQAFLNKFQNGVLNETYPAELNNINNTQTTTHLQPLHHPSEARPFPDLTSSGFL

[9] = biological target: Voltage-gated inwardly rectifying potassium channel KCNH2 (Homo sapiens, UniProt Q12809); conditions: Potency;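 further: confirmatory quantitative high-throughput screen measuring inhibition of hERG channel activity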
[10] = fluconazole-exposed Candida albicans growth modulators – fluorescence, retest, confirmation (AID 2467); assay type: functional, cell-based
[11] = Luminescence Cell-Based Dose Response HTS to Identify Inhibitors of 5'UTR Stem-Loop Driven Prion Protein mRNA Translation in H4 Neuroglioblastoma Cells. [Related pubchem assays: 1827 (Project Summary), 1813 (Primary HTS)]; assay type: functional
[12] = test system: Vero; assay: cells; assay type: functional; conditions: Chlorocebus sabaeus
[13] = luciferase reporter signal suppression in cells – H4 neuroglioma cells, luminescence, dose response (AID 1990); assay type: functional, cell-based
[14] = test system: Streptococcus; assay: GAS UMAA2166 growth inhibition – luminescence, BacTiterGlo, counter-screen for streptokinase expression inhibitor project, dose response (AID 1915); assay type: functional, organism-based;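 further: potency for reduction of bacterial viability or growth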
[15] = alpha-synuclein stem-loop luciferase translation blockers – H4 neuroglioma cells, luminescence, confirmation (AID 1988); assay type: functional, cell-based
[16] = test system: Streptococcus sp. 'group A'; assay: Streptococcus pyogenes SK(-)GAS viability under kanamycin – luminescence, BacTiterGlo, confirmation, counter-screen for streptokinase expression inhibitor project, dose response (AID 1900); assay type: functional, organism-based
[17] = biological target: T3, Serine/threonine-protein phosphatase (Candida dubliniensis (strain CD36 / CBS 7987 / NCPF 3949 / NRRLY-17841) (Yeast), UniProt B9W6M3); assay: blockers of CaCl2-induced CDRE-lacZ signaling – S. cerevisiae, luminescence, secondary, dose response (AID 2388); assay type: functional, cell-based;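 further: yeast reporter cells carrying a calcineurin-responsive lacZ construct stimulated with calcium chloride; luminescent beta-galactosidase reporter signal in whole cells rather than isolated phosphatase activity; potency for inhibition where a drop in reporter signal means calcineurin blockade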
T3 sequence (B9W6M3 whole entry): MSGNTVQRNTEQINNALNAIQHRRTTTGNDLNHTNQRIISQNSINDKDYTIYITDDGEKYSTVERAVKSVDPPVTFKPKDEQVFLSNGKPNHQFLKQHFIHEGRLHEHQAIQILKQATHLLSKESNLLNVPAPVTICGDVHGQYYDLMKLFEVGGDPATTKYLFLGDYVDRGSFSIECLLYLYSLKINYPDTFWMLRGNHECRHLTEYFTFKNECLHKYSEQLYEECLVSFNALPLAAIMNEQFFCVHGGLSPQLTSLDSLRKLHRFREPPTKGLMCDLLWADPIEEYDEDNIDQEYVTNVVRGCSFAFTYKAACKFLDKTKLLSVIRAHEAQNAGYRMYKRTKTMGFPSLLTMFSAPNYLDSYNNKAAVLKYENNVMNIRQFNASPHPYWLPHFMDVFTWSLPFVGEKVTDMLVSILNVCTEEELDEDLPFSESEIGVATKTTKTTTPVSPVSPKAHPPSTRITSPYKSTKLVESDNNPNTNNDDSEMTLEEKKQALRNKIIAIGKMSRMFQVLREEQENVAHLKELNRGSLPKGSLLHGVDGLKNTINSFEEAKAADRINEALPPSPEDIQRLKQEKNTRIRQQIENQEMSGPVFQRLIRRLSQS

[18] = biological target: ATP-dependent molecular chaperone HSP82 (Candida albicans (strain WO-1) (Yeast), UniProt C4YTQ8); assay: steroid-induced GRE reporter decrease in yeast – S. cerevisiae, luminescence, Hsp90 inhibitor project, dose response (AID 2400); assay type: functional, cell-based;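 further: beta-galactosidase luminescence from glucocorticoid response element reporter as proxy for Hsp90 function; inhibitor potency where signal loss means Hsp90 inhibition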
[19] = test system: Vero; assay: viability of Vero cells under compound – cytotoxicity control for flavivirus capping enzyme inhibitors (AID 588742); assay type: functional; conditions: Chlorocebus sabaeus
[20] = NIH-3T3 fibroblast cytotoxicity, dose response, cytotoxicity control, cell-based, fluorescence, Alamar Blue, secondary assay (AID 2327); assay type: functional;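 further: NIH-3T3 mouse fibroblasts cultured with fluconazole at 8 µg/mL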
[21] = biological target: Latent membrane protein 1 (Human herpesvirus 4 (strain B95-8), UniProt P03230); assay: LMP1 TES1 pathway selectivity over dsRED control – imaging, HEK293T, dual-color eGFP/dsRED, cherry-picks, selectivity assay for LMP1 NF-kB inhibitor project, dose response (AID 588398); assay type: functional, cell-based
[22] = test system: HEK293; assay: EBV LMP1 TES2 canonical NF-kB signalling blockers – cell-based, HEK293, luciferase, cherry-pick, dose response (AID 588343); assay type: functional; conditions: Homo sapiens
[23] = Luminescence Cell-Based Dose Confirmation HTS to Identify Inhibitors of Platelet Dense Granule Release. [Related pubchem assays: 1663 (Primary HTS), 1678 (Summary of Project)]; assay type: functional
[24] = biological target: Luciferin 4-monooxygenase (Photinus pyralis, UniProt P08659); assay: inhibition of purified Photinus pyralis luciferase – biochemical, luminescence, dose response (AID 1891)
[25] = biological target: Phospholipase D2 (Homo sapiens, UniProt O14939); assay: cellular phospholipase D2 inhibition IC50 – cell-based, dose response (AID 602147); assay type: functional;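 further: cellular assay in HEK293 cells overexpressing GFP-tagged PLD2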
[26] = biological target: Phospholipase D1 (Homo sapiens, UniProt Q13393); assay: cellular phospholipase D1 inhibition IC50 – cell-based, dose response (AID 602151); assay type: functional;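 further: cellular PLD1 assay in Calu-1 cells stimulated with PMA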
[27] = HPDE-C7 pancreatic duct cell viability loss – fluorescence, HTS (AID 430); assay type: functional, cell-based; conditions: Homo sapiens
[28] = biological target: Beta-galactosidase (Escherichia coli, UniProt Q8VNN2); assay: PubChem AID 485352; assay type: functional
[29] = biological target: T4, Type-1 angiotensin II receptor (Homo sapiens, UniProt P30556); assay: antagonism of angiotensin II type 1 receptor – cell-based, uHTS hits, selectivity assay for APJ receptor antagonist project, dose response (AID 463214); assay type: functional;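 further: antagonist potency against angiotensin II stimulated AT1 response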
T4 sequence (P30556 whole entry): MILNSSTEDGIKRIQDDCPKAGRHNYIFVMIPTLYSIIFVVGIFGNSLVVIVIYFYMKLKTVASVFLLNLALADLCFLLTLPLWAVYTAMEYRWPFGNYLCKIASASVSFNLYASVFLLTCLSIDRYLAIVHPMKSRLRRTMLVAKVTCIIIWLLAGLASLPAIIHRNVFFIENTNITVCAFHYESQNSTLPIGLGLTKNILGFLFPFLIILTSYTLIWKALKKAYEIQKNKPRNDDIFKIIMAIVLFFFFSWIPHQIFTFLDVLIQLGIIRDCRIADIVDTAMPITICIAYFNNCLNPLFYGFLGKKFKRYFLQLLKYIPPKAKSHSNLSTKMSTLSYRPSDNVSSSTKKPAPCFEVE

[30] = viability loss in HeLa cells – cytotoxicity control for MgcRacGAP inhibitor project, dose response (AID 624300); assay type: functional
[31] = viability loss of HPDE-C7K cells – cell-based, fluorescence, HTS, primary screen (AID 431); assay type: functional; conditions: Homo sapiens
[32] = test system: INS1; assay: INS-1E survival protection against cytokine death – cell-based, luminescence, retest, dose response (AID 449756); assay type: functional; conditions: Rattus norvegicus;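 further: cell death triggered by IL-1 beta plus TNF-alpha plus IFN-gamma mixture; protective hits raise ATP signal compared with cytokine alone wells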
[33] = Fluorescence-based cell-based high throughput dose response assay for inhibitors of the interaction of nucleotide-binding oligomerization domain containing 2 (NOD2) and the receptor-interacting serine-threonine kinase 2 (RIPK2).; assay type: functional; conditions: Homo sapiens
[34] = microbe, parasite or virus in culture; assay type: functional; conditions: Mycobacterium tuberculosis
[35] = biological target: Heat shock protein HSP 90-alpha (Homo sapiens, UniProt P07900); assay type: functional, organism-based
[36] = biological target: Induced myeloid leukemia cell differentiation protein Mcl-1 (Homo sapiens, UniProt Q07820); assay type: functional
[37] = biological target: Beta Lactamase (Pseudomonas aeruginosa, UniProt Q932Y6); assay: BLA reporter interference, concentration series – BLA reporter cells, FRET fluorescence, artefact control for TLR9-MyD88 binding inhibitor project, dose response (AID 588341); assay type: cell-based;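 further: cell based assay in CHO-K1 cells stably expressing beta-lactamase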
[38] = test system: CHO; assay: CHO cell viability loss, potency – luminescence, cytotoxicity control for TLR9-MyD88 binding inhibitor project, dose response (AID 588339); assay type: functional, cell-based, hamster; conditions: Cricetulus griseus;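 further: CHO cells stably coexpressing TLR9 and MyD88 fusions from primary screen; compound exposure lasted 48 hours before viability readout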

Phospholipase D2, sequence (O14939 whole entry): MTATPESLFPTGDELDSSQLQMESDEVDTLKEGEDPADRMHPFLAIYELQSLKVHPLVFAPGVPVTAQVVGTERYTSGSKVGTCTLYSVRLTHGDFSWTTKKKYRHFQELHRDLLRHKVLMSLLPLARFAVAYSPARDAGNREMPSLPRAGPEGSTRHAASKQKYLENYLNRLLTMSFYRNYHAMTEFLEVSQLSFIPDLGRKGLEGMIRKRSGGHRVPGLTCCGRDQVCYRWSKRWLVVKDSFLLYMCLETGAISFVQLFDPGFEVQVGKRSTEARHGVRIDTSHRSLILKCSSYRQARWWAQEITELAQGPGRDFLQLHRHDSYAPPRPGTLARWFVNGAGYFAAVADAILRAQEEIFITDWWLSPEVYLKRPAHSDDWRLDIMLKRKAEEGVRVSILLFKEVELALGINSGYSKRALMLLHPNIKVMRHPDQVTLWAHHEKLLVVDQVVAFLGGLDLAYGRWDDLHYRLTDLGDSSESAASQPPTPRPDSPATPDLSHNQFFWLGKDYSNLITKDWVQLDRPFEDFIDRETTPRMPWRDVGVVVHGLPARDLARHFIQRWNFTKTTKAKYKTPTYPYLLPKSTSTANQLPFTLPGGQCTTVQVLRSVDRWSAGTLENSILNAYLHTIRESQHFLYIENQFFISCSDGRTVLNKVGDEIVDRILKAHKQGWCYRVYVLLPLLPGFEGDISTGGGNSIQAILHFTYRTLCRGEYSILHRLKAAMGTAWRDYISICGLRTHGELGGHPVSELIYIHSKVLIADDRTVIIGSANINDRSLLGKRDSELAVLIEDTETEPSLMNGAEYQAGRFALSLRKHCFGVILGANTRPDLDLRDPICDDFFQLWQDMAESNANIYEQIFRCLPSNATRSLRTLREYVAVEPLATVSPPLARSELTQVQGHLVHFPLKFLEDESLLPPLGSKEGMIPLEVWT
Beta-galactosidase, sequence (Q8VNN2 whole entry): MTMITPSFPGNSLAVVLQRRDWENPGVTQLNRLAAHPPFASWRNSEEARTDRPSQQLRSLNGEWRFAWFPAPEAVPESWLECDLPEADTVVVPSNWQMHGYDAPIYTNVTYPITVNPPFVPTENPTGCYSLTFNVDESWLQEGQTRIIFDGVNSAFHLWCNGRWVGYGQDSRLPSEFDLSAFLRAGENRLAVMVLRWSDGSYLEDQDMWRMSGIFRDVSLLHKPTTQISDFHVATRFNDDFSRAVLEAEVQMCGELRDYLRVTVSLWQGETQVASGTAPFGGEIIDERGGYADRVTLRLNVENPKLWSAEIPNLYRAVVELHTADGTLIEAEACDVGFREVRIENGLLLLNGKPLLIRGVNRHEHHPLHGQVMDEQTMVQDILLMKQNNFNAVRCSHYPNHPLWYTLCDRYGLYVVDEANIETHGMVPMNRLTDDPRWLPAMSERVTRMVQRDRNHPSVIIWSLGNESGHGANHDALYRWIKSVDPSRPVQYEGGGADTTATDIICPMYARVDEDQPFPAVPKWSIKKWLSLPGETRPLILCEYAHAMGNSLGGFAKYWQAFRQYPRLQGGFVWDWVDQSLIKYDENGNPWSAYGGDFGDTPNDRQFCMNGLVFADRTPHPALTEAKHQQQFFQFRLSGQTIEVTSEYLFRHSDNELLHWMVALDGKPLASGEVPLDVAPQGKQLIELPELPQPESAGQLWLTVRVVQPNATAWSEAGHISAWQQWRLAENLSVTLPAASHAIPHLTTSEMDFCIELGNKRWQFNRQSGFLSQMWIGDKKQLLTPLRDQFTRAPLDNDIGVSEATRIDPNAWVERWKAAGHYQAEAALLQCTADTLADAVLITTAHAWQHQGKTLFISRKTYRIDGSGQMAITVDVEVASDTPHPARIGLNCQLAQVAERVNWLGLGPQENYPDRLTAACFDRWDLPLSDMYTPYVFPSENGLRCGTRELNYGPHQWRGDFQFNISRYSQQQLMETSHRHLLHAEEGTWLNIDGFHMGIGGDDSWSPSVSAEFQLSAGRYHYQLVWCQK
T1 sequence (P11940 whole entry): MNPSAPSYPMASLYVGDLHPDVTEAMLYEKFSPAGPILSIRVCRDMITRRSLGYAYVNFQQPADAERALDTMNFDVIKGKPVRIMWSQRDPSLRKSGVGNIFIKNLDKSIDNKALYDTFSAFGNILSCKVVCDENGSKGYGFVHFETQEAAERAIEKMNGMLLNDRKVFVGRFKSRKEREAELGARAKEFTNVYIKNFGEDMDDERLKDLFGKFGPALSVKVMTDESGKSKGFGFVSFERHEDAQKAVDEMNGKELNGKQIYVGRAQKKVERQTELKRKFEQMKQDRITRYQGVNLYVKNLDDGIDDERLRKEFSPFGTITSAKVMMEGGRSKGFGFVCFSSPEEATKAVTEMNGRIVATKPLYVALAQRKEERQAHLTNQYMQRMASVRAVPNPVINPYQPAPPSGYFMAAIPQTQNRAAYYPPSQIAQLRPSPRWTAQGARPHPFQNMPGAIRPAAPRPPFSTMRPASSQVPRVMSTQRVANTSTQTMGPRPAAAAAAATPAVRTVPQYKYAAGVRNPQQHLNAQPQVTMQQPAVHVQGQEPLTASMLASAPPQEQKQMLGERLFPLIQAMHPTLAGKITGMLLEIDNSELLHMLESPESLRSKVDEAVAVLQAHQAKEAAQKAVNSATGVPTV
Phospholipase D1, sequence (Q13393 whole entry): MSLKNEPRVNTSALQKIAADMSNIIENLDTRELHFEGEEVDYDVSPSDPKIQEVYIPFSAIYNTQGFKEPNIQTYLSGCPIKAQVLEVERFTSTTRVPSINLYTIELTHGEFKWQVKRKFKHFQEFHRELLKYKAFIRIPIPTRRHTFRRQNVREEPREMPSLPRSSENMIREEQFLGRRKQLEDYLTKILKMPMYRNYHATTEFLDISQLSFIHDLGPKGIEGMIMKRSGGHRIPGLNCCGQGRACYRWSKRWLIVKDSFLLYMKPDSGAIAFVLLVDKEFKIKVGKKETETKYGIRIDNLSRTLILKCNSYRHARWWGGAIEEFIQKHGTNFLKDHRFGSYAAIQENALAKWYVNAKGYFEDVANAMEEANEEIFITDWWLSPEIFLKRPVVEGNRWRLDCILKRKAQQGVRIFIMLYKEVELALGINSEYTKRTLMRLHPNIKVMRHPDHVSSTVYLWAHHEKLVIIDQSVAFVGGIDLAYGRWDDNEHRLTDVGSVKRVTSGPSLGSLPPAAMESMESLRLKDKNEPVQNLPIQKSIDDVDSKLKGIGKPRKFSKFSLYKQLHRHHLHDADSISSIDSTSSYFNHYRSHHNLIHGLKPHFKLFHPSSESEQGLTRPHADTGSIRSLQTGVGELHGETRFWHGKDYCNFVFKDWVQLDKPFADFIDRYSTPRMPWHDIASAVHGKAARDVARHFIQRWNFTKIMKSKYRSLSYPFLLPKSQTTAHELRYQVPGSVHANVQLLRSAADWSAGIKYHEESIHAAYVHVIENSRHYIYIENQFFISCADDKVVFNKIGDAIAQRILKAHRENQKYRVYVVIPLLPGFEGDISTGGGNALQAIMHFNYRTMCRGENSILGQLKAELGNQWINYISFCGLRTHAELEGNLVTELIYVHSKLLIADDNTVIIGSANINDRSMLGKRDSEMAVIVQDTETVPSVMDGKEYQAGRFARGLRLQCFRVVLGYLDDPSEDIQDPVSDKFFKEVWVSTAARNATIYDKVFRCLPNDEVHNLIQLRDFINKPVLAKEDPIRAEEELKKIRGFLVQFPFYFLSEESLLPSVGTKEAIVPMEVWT
Luciferin 4-monooxygenase, sequence (P08659 whole entry): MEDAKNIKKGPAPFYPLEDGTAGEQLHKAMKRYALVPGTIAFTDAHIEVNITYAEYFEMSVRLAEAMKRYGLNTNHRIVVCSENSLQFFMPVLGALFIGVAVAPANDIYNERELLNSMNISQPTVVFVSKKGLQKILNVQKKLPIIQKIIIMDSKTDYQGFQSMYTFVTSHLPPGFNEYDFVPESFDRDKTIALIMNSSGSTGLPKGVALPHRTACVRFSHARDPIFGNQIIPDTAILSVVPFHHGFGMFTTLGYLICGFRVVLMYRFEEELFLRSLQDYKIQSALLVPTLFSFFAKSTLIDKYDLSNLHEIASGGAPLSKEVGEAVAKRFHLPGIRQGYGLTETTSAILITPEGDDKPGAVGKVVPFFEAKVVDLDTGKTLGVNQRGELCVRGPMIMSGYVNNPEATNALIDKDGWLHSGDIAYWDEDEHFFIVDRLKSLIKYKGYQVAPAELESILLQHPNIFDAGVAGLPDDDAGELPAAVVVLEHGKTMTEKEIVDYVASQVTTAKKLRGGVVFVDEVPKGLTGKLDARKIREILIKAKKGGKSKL
Nonstructural protein 1, sequence (Q194T2 whole entry, the tested form may be a part): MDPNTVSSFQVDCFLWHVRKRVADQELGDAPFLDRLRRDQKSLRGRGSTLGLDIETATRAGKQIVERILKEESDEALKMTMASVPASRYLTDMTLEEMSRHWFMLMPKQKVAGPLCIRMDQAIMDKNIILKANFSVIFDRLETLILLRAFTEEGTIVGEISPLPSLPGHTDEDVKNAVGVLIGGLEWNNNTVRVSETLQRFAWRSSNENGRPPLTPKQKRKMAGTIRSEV
Induced myeloid leukemia cell differentiation protein Mcl-1, sequence (Q07820 whole entry): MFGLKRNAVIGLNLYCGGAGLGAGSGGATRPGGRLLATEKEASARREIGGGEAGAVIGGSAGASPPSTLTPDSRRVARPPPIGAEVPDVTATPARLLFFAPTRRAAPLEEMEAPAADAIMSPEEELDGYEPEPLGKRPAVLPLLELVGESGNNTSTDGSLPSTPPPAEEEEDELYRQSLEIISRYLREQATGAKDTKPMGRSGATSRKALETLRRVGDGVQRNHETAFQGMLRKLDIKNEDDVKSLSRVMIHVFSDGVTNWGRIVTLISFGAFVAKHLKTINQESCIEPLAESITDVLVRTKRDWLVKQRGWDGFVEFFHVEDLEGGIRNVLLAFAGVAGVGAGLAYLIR

Structure (SMILES): O=S(=O)(c1ccc2nc(O)sc2c1)N1CCCCC1
- AC50 [1]: > 150 µM (inactive)

Structure (SMILES): CCCCN1C(=O)/C(=C2\SC(N3CCCCC3)=NC2=O)c2ccccc21
- IC50 [2]: > 66 µM (inactive)
- IC50 [3]: 27.4 µM (active)
- IC50 [4]: > 66 µM (inactive)
- IC50 [5]: 2.13 µM (active)
- AC50 [6]: 37.9 µM (active)
- IC50 [7]: 1.54 µM (active)

Structure (SMILES): c1ccc(Nc2ccc(Nc3ccccc3)cc2)cc1
- AC50 [8]: 50.1 µM (inconclusive)
- AC50 [9]: 20 µM (inconclusive)
- AC50 [6]: 43.6 µM (active)

Structure (SMILES): Cc1cccc(/C=C/C(=O)c2cc(Br)ccc(=O)c2O)c1
- EC50 [10]: 1.11 µM (active)
- EC50 [11]: > 120 µM (not active)
- CC50 [12]: 7.95 µM (active)
- EC50 [13]: 11.6 µM (active)
- EC50 [14]: 2.77 µM (active)
- EC50 [15]: 9.67 µM (active)
- EC50 [16]: 1.78 µM (active)
- EC50 [17]: > 180 µM (inactive)
- EC50 [18]: 6.88 µM (active)
- CC50 [19]: 15.1 µM (active)
- EC50 [20]: 42.4 µM (inconclusive)

Structure (SMILES): COc1ccc(C(=O)Nc2ccc3[nH]ccc3c2)cc1
- EC50 [11]: 13.6 µM (active)
- AC50 [21]: 27.2 µM (active)
- EC50 [15]: 7.91 µM (active)
- AC50 [22]: 2.59 µM (active)
- EC50 [23]: 5.61 µM (active)
- EC50 [24]: 3.28 µM (active)

Structure (SMILES): O=C(NCCN1CCC2(CC1)C(=O)NCN2c1cccc(F)c1)c1cccc(F)c1
- IC50 [25]: 1.49 µM (active)
- IC50 [26]: 24 µM (active)

Structure (SMILES): CC1(C)CC(=O)C2=C(C1)OC1=C(C(=O)CC(C)(C)C1)C2c1ccc(O)cc1O
- EC50 [27]: 5.63 µM (active)
- EC50 [28]: > 40 µM (inactive)
- IC50 [29]: 9.76 µM (active)
- CC50 [30]: 50 µM (active)
- EC50 [31]: 7.07 µM (active)
- AC50 [32]: 6.76 µM (active)
- IC50 [33]: 1.36 µM (active)

Structure (SMILES): Cc1ccc(C(=O)N[C@@H](C)CN2CCC(n3c(=O)[nH]c4cc(Cl)ccc43)CC2)cc1
- IC50 [25]: 1.05 µM (active)
- IC50 [26]: 0.011 µM (active)

Structure (SMILES): CNc1ccc2oc(C[C@H]3O[C@@]4(CC[C@H]3C)O[C@H]([C@H](C)C(=O)c3ccc[nH]3)[C@H](C)C[C@H]4C)nc2c1C(=O)O [CALCIMYCIN]
- EC50 [28]: > 40 µM (inactive)
- EC50 [11]: 0.267 µM (active)
- EC50 [13]: 0.293 µM (active)
- EC50 [14]: 0.128 µM (active)
- EC50 [15]: 0.172 µM (active)
- EC50 [16]: < 0.06 µM (active)
- CC50 [34]: 0.319 µM (active)
- IC50 [29]: > 40 µM (not active)
- AC50 [35]: 1.07 µM (active)
- AC50 [32]: 2.08 µM (active)

Structure (SMILES): COc1ccc(C(=O)c2sc3nc(-c4ccc(OC)cc4)ccc3c2N)cc1
- IC50 [36]: 2.99 µM (not active)
- IC50 [37]: 4.44 µM (active)
- IC50 [38]: 36.8 µM (inactive)
